Key:
MDA-MB-231 = assay: MTT cytotoxic activity against breast MDA-MB-231 cancer cell line; format: cell-based; conditions: Homo sapiens, MDA-MB-231; MTT assay, 24 h treatment
From the text: All the synthesised compounds were screened for their cytotoxic activity against breast MDA-MB-231 cancer cell line and compounds 6 and 12 against breast MCF-10A cell line taking CA-4 as a positive control for the analysis. The in vitro cytotoxicity results of the prepared compounds were systematised in Table 1. […] Structurally, the prepared molecules contain three structural variations; including rotatable hydrazide derivatives, the core exchange with imidazolone ring, and the ring expansion with triazinone motif. […] It is noticed that directly attached benzene ring to triazinone scaffold (compound 6) or bioisosteric group (thiazolyl ester) as in compound 12, may contribute to the astonishing cytotoxicity against breast MDA-MB-231 cancer cells.
To measure the cytotoxic activity of the synthesised derivatives 2a–13e in breast cancer (MDA-MB-231) cell line. MTT assay method was applied to assess cell viability assay. All experimental steps were conducted as reported earlier.
Part I: Biological Studies
4.3. Biological evaluation
4.3.1. Cytotoxic activity evaluation
The cytotoxic actvity of the synthesized derivatives 2a-13e was measured in MDA-MB-231 breast cancer cell line and derivatives 6 and 12 in MCF-10A […].
Cell viability assay was assessed using MTT assay method. Cells at density of 1 x 104 were seeded in a 96-well plate at 37 °C for 24 h under 5% CO2. After incubation, the cells were treated with different concentrations of the test schiff bases 2a-13e and incubated for 24 h, then 20 µl of MTT solution at 5 mg/mL was applied and incubated for 4 h at 37 °C.
Dimethyl sulphoxide (DMSO) in volume of 100 µl was added to each well to dissolve the purple formazan that had formed. The color intensity of the formazan product, which represents the growth condition of the cells, is quantified by using an ELISA plate reader (EXL 800, USA) at 570 nm absorbance. The experimental conditions were carried out with at least three replicates, and the experiments were repeated at least three times. […]

melting point	Structure (SMILES)	IC50 (MDA-MB-231)
212 to 214 °C	COc1cc(C=C2N=C(c3cc(OC)c(OC)c(OC)c3)N(c3nc(-c4cccc([N+](=O)[O-])c4)cs3)NC2=O)cc(OC)c1OC [Compound 13d, 2-(4-(3-Nitrophenyl)thiazol-2-yl)-5-(3,4,5-trimethoxybenzylidene)-3-(3,4,5-trimethoxyphenyl)-1,2-dihydro-1,2,4-triazin-6(5H)-one]	3.16 ± 0.17 µM
212 to 214 °C	COc1cc(C=C2N=C(c3cc(OC)c(OC)c(OC)c3)N(c3nc(-c4ccccc4)cs3)NC2=O)cc(OC)c1OC [Compound 13a, 2-(4-Phenylthiazol-2-yl)-5-(3,4,5-trimethoxybenzylidene)-3–(3,4,5-trimethoxyphenyl)-1,2-dihydro-1,2,4-triazin-6(5H)-one]	19.6 ± 1.42 µM
212 to 214 °C	COc1cc(C=C2N=C(c3cc(OC)c(OC)c(OC)c3)N(c3nc(-c4ccc(Cl)cc4)cs3)NC2=O)cc(OC)c1OC [Compound 13b, 2-(4-(4-Chlorophenyl)thiazol-2-yl)-5-(3,4,5-trimethoxybenzylidene)-3-(3,4,5-trimethoxyphenyl)-1,2-dihydro-1,2,4-triazin-6(5H)-one]	20.7 ± 1.58 µM
212 to 214 °C	COc1cc(C(=O)N/C=C(\C(=O)NNc2nc(-c3ccccc3)cs2)c2cc(OC)c(OC)c(OC)c2)cc(OC)c1OC [Compound 11a, 3,4,5-Trimethoxy-N-(3-oxo-3-(2-(4-arylthiazol-2-yl)hydrazinyl)-1-(3,4,5-trimethoxyphenyl)prop-1-en-2-yl)benzamide]	6.21 ± 0.47 µM
199 to 201 °C	COc1cc(C=C2N=C(c3cc(OC)c(OC)c(OC)c3)N(C(=O)c3cccc(OC(C)=O)c3)NC2=O)cc(OC)c1OC (hydrate or solvate) [Compound 7, 3-(6-oxo-5–(3,4,5-trimethoxybenzylidene)-3-(3,4,5-trimethoxyphenyl)-1,2,5,6-tetrahydro-1,2,4-triazine-2-carbonyl)phenyl acetate]	
241 to 243 °C	COc1cc(C=C(NC(=O)c2cc(OC)c(OC)c(OC)c2)C(=O)NNC(=O)c2cccc(O)c2)cc(OC)c1OC [Compound 2a, N-(3-(2-(3-hydroxybenzoyl)hydrazinyl)-3-oxo-1-(3,4,5-trimethoxyphenyl)prop-1-en-2-yl)-3,4,5-trimethoxybenzamide]	21.7 ± 1.17 µM
205 to 207 °C	COc1cc(C=C2N=C(c3cc(OC)c(OC)c(OC)c3)N(N)C2=O)cc(OC)c1OC [Compound 5, 1-amino-4-(3,4,5-trimethoxybenzylidene)-2-(3,4,5-trimethoxyphenyl)-1H-imidazol-5(4H)-one]	57.1 ± 3.23 µM
	COc1cc(C=C2N=C(c3cc(OC)c(OC)c(OC)c3)N(C(N)=S)NC2=O)cc(OC)c1OC [Compound 9, 6-oxo-5-(3,4,5-trimethoxybenzylidene)-3-(3,4,5-trimethoxyphenyl)-5,6-dihydro-1,2,4-triazine-2(1H)-carbothioamide]	4.14 ± 0.22 µM
	COc1cc(C=C(NC(=O)c2cc(OC)c(OC)c(OC)c2)C(=O)NNC(N)=S)cc(OC)c1OC [Compound 8, N-(3-(2-carbamothioylhydrazinyl)-3-oxo-1-(3,4,5-trimethoxyphenyl)prop-1-en-2-yl)-3,4,5-trimethoxybenzamide]	31.5 ± 1.82 µM
	COc1cc(C=C2N=C(c3cc(OC)c(OC)c(OC)c3)N(C(=O)c3cccc(OC(C)=O)c3)NC2=O)cc(OC)c1OC [Compound 7, 3-(6-oxo-5–(3,4,5-trimethoxybenzylidene)-3-(3,4,5-trimethoxyphenyl)-1,2,5,6-tetrahydro-1,2,4-triazine-2-carbonyl)phenyl acetate]	13.7 ± 1.04 µM
239 to 241 °C	COc1cc(C=C2N=C(c3cc(OC)c(OC)c(OC)c3)N(C(N)=S)NC2=O)cc(OC)c1OC (hydrate or solvate) [Compound 9, 6-oxo-5-(3,4,5-trimethoxybenzylidene)-3-(3,4,5-trimethoxyphenyl)-5,6-dihydro-1,2,4-triazine-2(1H)-carbothioamide]	

Reference: paper PMC9518609, “Design and synthesis of new trimethoxylphenyl-linked combretastatin analogues loaded on diamond nanoparticles as a panel for ameliorated solubility and antiproliferative activity” (Journal of Enzyme Inhibition and Medicinal Chemistry, 2022)
